Experimental data taken from ChEMBL document CHEMBL1141099, “Discovery of N-(2,6-dimethylphenyl)-substituted semicarbazones as anticonvulsants: hybrid pharmacophore-based design” (2005).

Columns and labels:
[1] = molecular target: 4-aminobutyrate aminotransferase, mitochondrial (Rattus norvegicus) (UniProt P50554); test: In vitro percentage inhibition activity against GABA-T enzyme at a concentration of 1.25 uM after 3 h
[2] = molecular target: 4-aminobutyrate aminotransferase, mitochondrial (Rattus norvegicus) (UniProt P50554); test: In vitro percentage inhibition activity against GABA-T enzyme at a concentration of 1.25 uM after 6 h
[3] = molecular target: 4-aminobutyrate aminotransferase, mitochondrial (Rattus norvegicus) (UniProt P50554); test: In vitro percentage inhibition activity against GABA-T enzyme at a concentration of 1.25 uM after 4.5 h
Rattus norvegicus [4] = test: Number of rats protected at a dose of 30 mg/Kg when given oral at 1 hr upon maximal electroshock seizure; Total number of rats = 4; assay type: functional
Rattus norvegicus [5] = test: Number of rats protected at a dose of 30 mg/Kg when given oral at 2 hr upon maximal electroshock seizure; Total number of rats = 4; assay type: functional
Rattus norvegicus [6] = test: Number of rats protected at a dose of 30 mg/Kg when given oral at 4 hr upon maximal electroshock seizure; Total number of rats = 4; assay type: functional
Rattus norvegicus [7] = test: Number of rats protected at a dose of 30 mg/Kg when given oral at 0.5 hr upon maximal electroshock seizure; Total number of rats = 4; assay type: functional
Rattus norvegicus [8] = test: Number of rats protected at a dose of 30 mg/Kg when given oral at 0.25 hr upon maximal electroshock seizure; Total number of rats = 4; assay type: functional
Rattus norvegicus [9] = test: Effect on GABA level in rat whole brain concentration after 2 hr post-treatment at a dose of 100 mg/Kg when given i.p.; Control 48.4; assay type: functional
Rattus norvegicus [10] = test: Effect on GABA level in rat whole brain concentration after 7 days post-treatment at a dose of 30 mg/Kg when given orally; Control 50.5; assay type: functional
Rattus norvegicus [11] = test: Enzymatic activity to assess the increase in level of SGOT at a dose of 30 mg/Kg for 14 days when given p.o., in 6 rats; Control 73.1; assay type: functional
Rattus norvegicus [12] = test: Enzymatic activity to assess the increase in level of SGPT at a dose of 30 mg/Kg for 14 days when given p.o., in 6 rats; Control 45.0; assay type: functional
Rattus norvegicus [13] = test: After discharge duration time when before administered in rat 1 at dose 130 mg/Kg when given i.p., upon preliminary hippocampal-kindling screen; Prodrug time 26-39 s; assay type: functional, Hippocampus
Rattus norvegicus [14] = test: Toxic dose observed for anticonvulsant activity when given orally at 4 h in rat upon neurotoxicity seizure; assay type: functional; conditions: po
Rattus norvegicus [15] = species: Rattus norvegicus; test: Ex vitro percentage inhibition activity against GABA-T enzyme at a concentration of 2.5 uM after 4.5 h; assay type: functional
Rattus norvegicus [16] = species: Rattus norvegicus; test: Protective index between effective dose and toxic dose in rat; assay type: functional
Rattus norvegicus [17] = test: After discharge duration time when after administered in rat 1 at dose 130 mg/Kg when given i.p., upon preliminary hippocampal-kindling screen; assay type: functional, Hippocampus
Rattus norvegicus [18] = test: After discharge duration time when after administered in rat 2 at dose 130 mg/Kg when given i.p., upon preliminary hippocampal-kindling screen; assay type: functional, Hippocampus
Rattus norvegicus [19] = test: After discharge duration time when before administered in rat 2 at dose 130 mg/Kg when given i.p., upon preliminary hippocampal-kindling screen; Prodrug time 30-39 s; assay type: functional, Hippocampus
Mus musculus [20] = test: Minimum dose required for anticonvulsant activity when given i.p., at 4 hr in mice upon maximal electroshock seizure; assay type: functional
Mus musculus [21] = test: Minimum dose required for anticonvulsant activity when given i.p., at 0.5 hr in mice upon maximal electroshock seizure; assay type: functional
Rattus norvegicus [22] = test: Seizure score after administration in rat 1 at dose 130 mg/Kg when given i.p., upon preliminary hippocampal-kindling screen; assay type: functional, Hippocampus
Rattus norvegicus [23] = test: Seizure score after administration in rat 2 at dose 130 mg/Kg when given i.p., upon preliminary hippocampal-kindling screen; assay type: functional, Hippocampus
Rattus norvegicus [24] = test: Seizure score before administration in rat 1 at dose 130 mg/Kg when given i.p., upon preliminary hippocampal-kindling screen; assay type: functional, Hippocampus
Rattus norvegicus [25] = test: Seizure score before administration in rat 2 at dose 130 mg/Kg when given i.p., upon preliminary hippocampal-kindling screen; assay type: functional, Hippocampus
Rattus norvegicus [26] = test: Effective dose required for anticonvulsant activity when given orally at 4 h in rat upon maximal electroshock seizure; assay type: functional; conditions: po
Rattus norvegicus [27] = species: Rattus norvegicus; test: Ex vitro percentage inhibition activity against GABA-T enzyme at a concentration of 2.5 uM after 3 h; assay type: functional
Rattus norvegicus [28] = species: Rattus norvegicus; test: Ex vitro percentage inhibition activity against GABA-T enzyme at a concentration of 2.5 uM after 6 h; assay type: functional
Mus musculus [29] = test: Minimum dose required for anticonvulsant activity when given i.p., at 0.5 hr in mice upon subcutaneous pentylenetetrazole seizure; assay type: functional
Mus musculus [30] = test: Minimum dose required for anticonvulsant activity when given i.p., at 2 hr in mice upon subcutaneous strychnine seizure; assay type: functional
Mus musculus [31] = test: Minimum dose required for anticonvulsant activity when given i.p., at 0.5 hr in mice upon subcutaneous strychnine seizure; assay type: functional
Mus musculus [32] = test: Post treatment activity score for CNS study using a actophotometer at a dose of 100 mg/Kg after 1 hr when given i.p., in mice (No. of animals 6); Control (24h before) 217
Mus musculus [33] = test: Post treatment activity score for CNS study using a actophotometer at a dose of 100 mg/Kg after 0.5 hr when given i.p., in mice (No. of animals 6); Control (24h before) 217
Mus musculus [34] = test: Post treatment immobility time for CNS study using Porsolt's swimpool test at a dose of 100 mg/Kg after 1 h when given i.p., in mice (No. of animals 6); Control (24h before) 190
Mus musculus [35] = test: Minimum dose required for anticonvulsant activity when given i.p., at 0.5 hr in mice upon neurotoxicity seizure using rotarod test; assay type: functional
Mus musculus [36] = test: Minimum dose required for anticonvulsant activity when given i.p., in mice upon neurotoxicity seizure using rotarod test
Mus musculus [37] = test: Post treatment activity score for CNS study using a actophotometer at a dose of 100 mg/Kg after 1 hr when given i.p., in mice (No. of animals 6); Control (24h before) 258
Mus musculus [38] = test: Post treatment activity score for CNS study using a actophotometer at a dose of 100 mg/Kg after 0.5 hr when given i.p., in mice (No. of animals 6); Control (24h before) 258
Mus musculus [39] = test: Post treatment immobility time for CNS study using Porsolt's swimpool test at a dose of 100 mg/Kg after 1 hr when given i.p., in mice (No. of animals 6); Control (24h before) 184
[40] = molecular target: 4-aminobutyrate aminotransferase, mitochondrial (Rattus norvegicus) (UniProt P50554); test: In vitro percentage inhibition activity against GABA-T enzyme at a concentration of 0.625 uM after 3 h
[41] = molecular target: 4-aminobutyrate aminotransferase, mitochondrial (Rattus norvegicus) (UniProt P50554); test: In vitro percentage inhibition activity against GABA-T enzyme at a concentration of 0.625 uM after 6 h
[42] = molecular target: 4-aminobutyrate aminotransferase, mitochondrial (Rattus norvegicus) (UniProt P50554); test: In vitro percentage inhibition activity against GABA-T enzyme at a concentration of 0.625 uM after 4.5 h
Rattus norvegicus [43] = test: Toxic dose observed for anticonvulsant activity when given i.p., at 0.5 hr in rat upon neurotoxicity seizure; assay type: functional; conditions: ip
Rattus norvegicus [44] = species: Rattus norvegicus; test: Ex vitro percentage inhibition activity against GABA-T enzyme at a concentration of 1.25 uM after 4.5 h; assay type: functional
Rattus norvegicus [45] = test: Effective dose required for anticonvulsant activity when given i.p., at 0.5 hr in rat upon maximal electroshock seizure; assay type: functional; conditions: ip
Rattus norvegicus [46] = species: Rattus norvegicus; test: Ex vitro percentage inhibition activity against GABA-T enzyme at a concentration of 1.25 uM after 3 h; assay type: functional
Rattus norvegicus [47] = species: Rattus norvegicus; test: Ex vitro percentage inhibition activity against GABA-T enzyme at a concentration of 1.25 uM after 6 h; assay type: functional
Mus musculus [48] = test: Mean sleeping time evaluated for CNS study using the pentobarbital-induced narcosis model at a dose of 100 mg/Kg when given i.p., in mice (No. of animals 6)
Mus musculus [49] = test: Post treatment activity score for CNS study using a actophotometer at a dose of 100 mg/Kg after 1 hr when given i.p., in mice (No. of animals 6); Control (24h before) 281
Mus musculus [50] = test: Post treatment activity score for CNS study using a actophotometer at a dose of 100 mg/Kg after 0.5 hr when given i.p., in mice (No. of animals 6); Control (24h before) 281
Mus musculus [51] = test: Post treatment immobility time for CNS study using Porsolt's swimpool test at a dose of 100 mg/Kg after 1 hr when given i.p., in mice (No. of animals 6); Control (24h before) 132

Sequence of 4-aminobutyrate aminotransferase, mitochondrial (Rattus norvegicus) (P50554 28-500 limits assumed): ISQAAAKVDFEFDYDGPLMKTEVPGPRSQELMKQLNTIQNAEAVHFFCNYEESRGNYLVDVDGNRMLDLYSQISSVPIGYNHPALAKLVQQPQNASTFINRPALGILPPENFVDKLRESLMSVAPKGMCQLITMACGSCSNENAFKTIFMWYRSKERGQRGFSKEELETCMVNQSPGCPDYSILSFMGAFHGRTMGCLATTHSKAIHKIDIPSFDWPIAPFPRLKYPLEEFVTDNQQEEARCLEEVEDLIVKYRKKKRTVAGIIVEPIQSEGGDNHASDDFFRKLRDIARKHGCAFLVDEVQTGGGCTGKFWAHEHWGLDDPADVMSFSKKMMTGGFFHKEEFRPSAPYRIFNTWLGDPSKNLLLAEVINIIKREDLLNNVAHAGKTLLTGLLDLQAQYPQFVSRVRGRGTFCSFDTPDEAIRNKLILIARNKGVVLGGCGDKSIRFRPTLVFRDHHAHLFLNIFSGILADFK

Row | Structure (SMILES) | Activity (Rattus norvegicus [4]) | Activity (Rattus norvegicus [5]) | Activity (Rattus norvegicus [6]) | Activity (Rattus norvegicus [7]) | Activity (Rattus norvegicus [8]) | Activity (Rattus norvegicus [9]) | Activity (Rattus norvegicus [10]) | SGOT activity (Rattus norvegicus [11]) | SGPT activity (Rattus norvegicus [12]) | TD50 (Rattus norvegicus [14]) | PI (Rattus norvegicus [16]) | MES (Mus musculus [20]) | MES (Mus musculus [21]) | ED50 (Rattus norvegicus [26]) | PTZ seizure (Mus musculus [29]) | STY seizure (Mus musculus [30]) | STY seizure (Mus musculus [31]) | NT (Mus musculus [35]) | also measured
1 | Cc1cccc(C)c1NC(=O)N/N=C/c1ccccc1O | 3 | 4 | 4 | 3 | 1 | 92.1 ug/100mg of tissue | 110 ug/100mg of tissue | 64.8 units/mL | 43.3 units/mL | > 500 mg/kg | >25.1 | 300 mg/kg | 100 mg/kg | 19.8 mg/kg | 300 mg/kg | 100 mg/kg | 30 mg/kg | – | inhibition [1]: 58%; inhibition [2]: 9%; inhibition [3]: 0%; ADD (Rattus norvegicus [13]): 39 s; Inhibition (Rattus norvegicus [15]): 43%; ADD (Rattus norvegicus [17]): 59 s; ADD (Rattus norvegicus [18]): 25 s; ADD (Rattus norvegicus [19]): 39 s; Score (Rattus norvegicus [22]): 1; Score (Rattus norvegicus [23]): 1; Score (Rattus norvegicus [24]): 5; Score (Rattus norvegicus [25]): 5; Inhibition (Rattus norvegicus [27]): 90%; Inhibition (Rattus norvegicus [28]): 0%; Activity (Mus musculus [32]): 135; Activity (Mus musculus [33]): 155; Activity (Mus musculus [34]): 191
2 | C/C(=N\NC(=O)Nc1c(C)cccc1C)c1ccc(N)cc1 | 4 | 2 | 4 | 3 | 1 | – | – | 71.3 units/mL | 44.6 units/mL | > 464 mg/kg | >15.9 | 300 mg/kg | 100 mg/kg | 29.1 mg/kg | 300 mg/kg | 100 mg/kg | 30 mg/kg | 300 mg/kg | NT (Mus musculus [36]): 300 mg/kg; Activity (Mus musculus [37]): 187; Activity (Mus musculus [38]): 202; Activity (Mus musculus [39]): 204
3 | Cc1cccc(C)c1NC(=O)N/N=C/c1ccccc1[N+](=O)[O-] | 2 | 2 | 2 | 2 | 2 | 84.7 ug/100mg of tissue | 81.6 ug/100mg of tissue | – | – | – | >4.3 | 300 mg/kg | 300 mg/kg | – | 300 mg/kg | – | 100 mg/kg | 300 mg/kg | inhibition [40]: 53%; inhibition [41]: 40%; inhibition [42]: 0%; TD50 (Rattus norvegicus [43]): > 100 mg/kg; Inhibition (Rattus norvegicus [44]): 98%; ED50 (Rattus norvegicus [45]): 23.2 mg/kg; Inhibition (Rattus norvegicus [46]): 0%; Inhibition (Rattus norvegicus [47]): 23%; Time (Mus musculus [48]): 141 min; Activity (Mus musculus [49]): 177; Activity (Mus musculus [50]): 177; Activity (Mus musculus [51]): 190
